For experiment [1], the target named is T1, enoyl-ACP reductase (ENR) (Arabidopsis thaliana, UniProt Q9SLA8).
T1 construct: gene MOD1
T1 sequence (Q9SLA8 75-390): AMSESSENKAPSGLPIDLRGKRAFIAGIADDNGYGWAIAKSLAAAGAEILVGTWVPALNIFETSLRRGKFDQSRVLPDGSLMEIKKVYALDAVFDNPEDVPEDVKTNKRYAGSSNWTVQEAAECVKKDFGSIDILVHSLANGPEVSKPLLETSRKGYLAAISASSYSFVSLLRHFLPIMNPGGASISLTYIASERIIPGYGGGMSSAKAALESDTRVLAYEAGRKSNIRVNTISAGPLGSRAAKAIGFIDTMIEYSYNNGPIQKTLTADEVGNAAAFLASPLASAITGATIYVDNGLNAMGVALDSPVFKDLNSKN
Nature of the experiment: NADH oxidation (A340) with purified recombinant enzyme. Format: biochemical.

Experiment [2] concerns T2, photosystem II QB protein (D1).
T2 construct: gene psbA; isolated thylakoid membranes, wild-type; with photosystem II complex
Description: oxygen evolution in isolated thylakoid membranes. It counts as biochemical, Amaranthus retroflexus.

For experiment [3], the target named is T3, photosystem II QB protein (D1) (Spinacia oleracea, UniProt P69560).
T3 construct: gene psbA; isolated thylakoid membranes; with photosystem II complex
Nature of the experiment: […]-atrazine displacement on spinach thylakoid membranes. Format: binding.

Each structure is given as a SMILES string.

For `CCCCC/C=C/C=C/C(=O)N1CCCC1` [Sarmentine, 1-(1-pyrrolidinyl)-(2E,4E)-2,4-decadien-1-one], the IC50 is 18.3 µM in experiment [1] and 1.72 µM in experiment [2]. The compound further gave a Ki in experiment [3] of 1.5 µM.

With `CCNc1nc(Cl)nc(NC(C)C)n1` [atrazine], half-maximal inhibition in experiment [2] (IC50) required 0.6 µM.

For the origin of these results see paper PMC4389368, “Sarmentine, a natural herbicide from Piper species with multiple herbicide mechanisms of action” (Frontiers in Plant Science, 2015).
